According to ChEMBL document CHEMBL1127160, “Phenylalkyl ketones as potent reversible inhibitors of interleukin-1 converting enzyme” (Bioorg Med Chem Lett, 1993):

Each compound was assayed against T1, Caspase-1 (Homo sapiens, UniProt P29466) (assay: The compound was tested for its inhibitory activity against IL-1 beta converting enzyme).
T1 sequence (P29466 whole entry): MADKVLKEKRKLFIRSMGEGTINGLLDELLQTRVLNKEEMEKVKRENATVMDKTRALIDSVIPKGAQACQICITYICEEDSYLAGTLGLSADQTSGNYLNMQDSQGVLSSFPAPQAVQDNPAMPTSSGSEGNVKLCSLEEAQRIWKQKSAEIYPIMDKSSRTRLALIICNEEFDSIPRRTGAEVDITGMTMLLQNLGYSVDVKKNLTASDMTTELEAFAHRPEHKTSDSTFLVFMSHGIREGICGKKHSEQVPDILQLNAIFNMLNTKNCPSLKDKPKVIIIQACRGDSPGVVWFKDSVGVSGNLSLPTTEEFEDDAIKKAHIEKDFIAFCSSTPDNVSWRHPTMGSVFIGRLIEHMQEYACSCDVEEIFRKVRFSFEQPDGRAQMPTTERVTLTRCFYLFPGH

| Ki [µM] | SMILES |
| --- | --- |
| > 10 | CC(=O)N[C@@H](Cc1ccc(O)cc1)C(=O)NC(C(=O)N[C@@H](C)C(=O)NC(CC(=O)O)C(C)=O)C(C)C (single isomer, unassigned) |
| > 100 | CC(=O)N[C@@H](Cc1ccc(O)cc1)C(=O)N[C@H](C(=O)N[C@@H](C)C(=O)N[C@@H](CC(=O)O)C(=O)C1CCCCC1)C(C)C |
| 0.61 | CC(C)[C@H](NC(=O)CCc1ccccc1)C(=O)N[C@@H](C)C(=O)N[C@@H](CC(=O)O)C(=O)CCc1ccccc1 |
| 0.1 | CC(C)[C@H](NC(=O)CCc1ccccc1)C(=O)N[C@@H](C)C(=O)N[C@@H](CC(=O)O)C(=O)CCCc1ccccc1 |
| 0.0185 | CC(=O)N[C@@H](Cc1ccc(O)cc1)C(=O)N[C@H](C(=O)N[C@@H](C)C(=O)N[C@@H](CC(=O)O)C(=O)CCCCCc1ccccc1)C(C)C |
| 3.1 | CC(C)[C@H](NC(=O)CCc1ccccc1)C(=O)N[C@@H](C)C(=O)N[C@@H](CC(=O)O)C(=O)Cc1ccccc1 |
| 10 | CC(=O)N[C@@H](Cc1ccc(O)cc1)C(=O)N[C@H](C(=O)N[C@@H](C)C(=O)N[C@@H](CC(=O)O)C(=O)c1ccccc1)C(C)C (stereo in doubt) |
| 4 | CCC(=O)[C@H](CC(=O)O)NC(=O)[C@H](C)NC(=O)[C@@H](NC(=O)[C@H](Cc1ccc(O)cc1)NC(C)=O)C(C)C |
| 0.042 | CC(=O)N[C@@H](Cc1ccc(O)cc1)C(=O)N[C@H](C(=O)N[C@@H](C)C(=O)N[C@@H](CC(=O)O)C(=O)CCCCc1ccccc1)C(C)C |
| > 100 | CC(=O)N[C@@H](Cc1ccc(O)cc1)C(=O)N[C@H](C(=O)N[C@@H](C)C(=O)N[C@@H](CC(=O)O)C(=O)c1ccccc1)C(C)C (stereo in doubt; 7c) |
